Experiment [1] relates to Aβ injection model (Aβ 1-40 administered intracerebroventricularly). Put plainly: Morris water maze tests in Aβ injection model, Test Example 2. It counts as in vivo, ddY mouse. To be noted: olmesartan medoxomil 1 mg/kg/day, hydralazine 30 mg/kg/day. The procedure:
The therapeutic effect of olmesartan medoxomil in Aβ injection model and the dose dependency thereof were examined according to the following experimental schedule. [Experimental Schedule]: Prior to the experiment, 8-week old male ddY mice were administered olmesartan medoxomil (0.5 mg/kg/day, 1 mg/kg/day, 3 mg/kg/day or 6 mg/kg/day) or distilled water orally for four weeks (day −28 to −1). Then, Aβ 1-40 was administered to the mice intracerebroventricularly (day 0). (Although Aβ 1-40 was administered into one of the lateral ventricles in WO 2006/059777, Aβ 1-40 was administered in Test Example 1 to both lateral ventricles with an interval of one day between two administrations. Except for this point, Aβ 1-40 administration was performed in the same manner as in WO 2006/059777.) From one week thereafter, a behavioral test to evaluate cognitive function (Morris water maze test; Morris R et al., J Neuroscience Methods 1984, 11, 47-60) was performed (day 7 to 12). As a negative control, mice which had received oral administration of distilled water for four weeks were administered Aβ 40-1 intracerebroventricularly. The administration of olmesartan medoxomil or distilled water was continued until the end of the behavioral test. Measurements were performed as described below. • Hidden platform test: A platform is placed below the water surface of a water pool 150 cm in diameter filled with white water-colored. Mice are released into the water, and the time it takes them to reach the platform is measured. This trial is performed three times a day and for five consecutive days. As they learn, mice become able to reach the platform more quickly day by day. • Visible platform test: Mice are released into the water under such conditions that they can see the platform. The time it takes them to reach the platform is measured. • Probe test: The platform is removed, and mice are released and allowed to swim freely. Those mice with good learning/memory swim in the quadrant where the platform was located searching for the platform. The time they spent in that quadrant is measured. • Annnulus crossing: The number of times mice crossed the platform in the probe test is counted. […] The dose of olmesartan medoxomil was set at a low level of 1 mg/kg/day in view of the experimental results of Test Example 1. […] As behavioral tests to assess cognitive function, Morris water maze tests were performed as in Test Example 1 (hidden platform test, visible platform test and probe test) and, in addition, an open field test was also performed. Further, long-term retention, working memory task and swimming speed were also examined in the Morris water maze tests. Measurements were performed as described below. • Open field test: A cubic box (30×30×30 cm) is used. On each X and Y bank of the open-field area, two infrared beams are attached 2 cm above the floor at a 10 cm interval. The number of successive interceptions by the subject of the two adjoining beams on each bank is counted as locomotion score. • Long-term retention: On day 12 after the completion of the hidden platform test as a water maze test, mice are released into the water and the time it takes them to reach the platform is measured. • Working memory task: The platform is transferred and fixed at a new place. Mice are given four consecutive trials at intervals of as short as 20 seconds, and the time it takes them to reach the platform is measured. […] In order to eliminate this influence, swimming speed is measured.

Experiment [2] is described as follows: Blood pressure, Test Example 2 (hydralazine as hypotensive control). It counts as in vivo, ddY mouse. As to conditions: after 4-week oral administration (day −1); olmesartan medoxomil 1 mg/kg/day, hydralazine 30 mg/kg/day. The protocol: Further, assessment of blood pressure was performed by the tail-cuff method (using a sphygmomanometer wound around the mouse tail) (Bunag R D, J Lab Clin Med. 1971, 78, 957-62) immediately before the start of administration of olmesartan medoxomil or distilled water (day −30), immediately before (day −1) and immediately after (day 2) the Aβ intracerebroventricular administration, and after completion of the behavioral test (day 14) (see FIG. 1). […] The dose of olmesartan medoxomil was set at a low level of 1 mg/kg/day in view of the experimental results of Test Example 1. […] The number of successive interceptions by the subject of the two adjoining beams on each bank is counted as locomotion score. • Long-term retention: On day 12 after the completion of the hidden platform test as a water maze test, mice are released into the water and the time it takes them to reach the platform is measured. • Working memory task: The platform is transferred and fixed at a new place. Mice are given four consecutive trials at intervals of as short as 20 seconds, and the time it takes them to reach the platform is measured. […] In order to eliminate this influence, swimming speed is measured.

On to `CCCc1nc(C(C)(C)O)c(C(=O)OCc2oc(=O)oc2C)n1Cc1ccc(-c2ccccc2-c2nnn[nH]2)cc1` [olmesartan medoxomil, (5-methyl-2-oxo-1,3-dioxolen-4-yl)methyl 4-(1-hydroxy-1-methylethyl)-2-propyl-1-[4-[2-(tetrazol-5-yl)phenyl]phenyl]methyl-imidazole-5-carboxylate], for which, in experiment [1] (Aβ 1-40 + drug), the “annulus crossings: number of platform crossings compared to Aβ 1-40 administration group” value is recorded as “increased” and the “hidden platform test: time to reach the platform” value is recorded as “shortened through successive sessions”. Also, the “long-term retention: time to reach the platform compared to Aβ 1-40 administration group” value in experiment [1] (day 17) is recorded as “shortened”. In experiment [1], the “spatial memory impairment and learning disability evoked by Aβ 1-40 (Morris water test, summary)” value was “significantly improved”; the “working memory task: time to reach the platform compared to Aβ 1-40 administration group” value is recorded as “shortened”. For the same compound, the “blood pressure compared to distilled water administration group” value in experiment [2] is listed as “lowered significantly”.

Source of the values: patent US20120302614A1, “METHOD FOR IMPROVING CEREBRAL CIRCULATION OR TREATING A CEREBRAL BLOOD FLOW DISORDER” (OSAKA UNIVERSITY, priority 2007, published 2012).
